Drawing on US8785436B2, “1,3-oxazines as BACE 1 and/or BACE2 inhibitors” (Hoffmann-La Roche Inc., priority 2011, dated 2014), this text covers IC50 for 27 compounds.

Where a name gives a salt, the structure may show the parent alone.

The target of this assay is T1, BACE1 (Homo sapiens, UniProt P56817).
T1 construct: Human HEK293 cells which are stably transfected with a vector expressing a cDNA of the human APP wt gene (APP695); endogenous in cells; host or cells: HEK293 cells stably expressing human APP695 wt
T1 sequence (P56817 46-501): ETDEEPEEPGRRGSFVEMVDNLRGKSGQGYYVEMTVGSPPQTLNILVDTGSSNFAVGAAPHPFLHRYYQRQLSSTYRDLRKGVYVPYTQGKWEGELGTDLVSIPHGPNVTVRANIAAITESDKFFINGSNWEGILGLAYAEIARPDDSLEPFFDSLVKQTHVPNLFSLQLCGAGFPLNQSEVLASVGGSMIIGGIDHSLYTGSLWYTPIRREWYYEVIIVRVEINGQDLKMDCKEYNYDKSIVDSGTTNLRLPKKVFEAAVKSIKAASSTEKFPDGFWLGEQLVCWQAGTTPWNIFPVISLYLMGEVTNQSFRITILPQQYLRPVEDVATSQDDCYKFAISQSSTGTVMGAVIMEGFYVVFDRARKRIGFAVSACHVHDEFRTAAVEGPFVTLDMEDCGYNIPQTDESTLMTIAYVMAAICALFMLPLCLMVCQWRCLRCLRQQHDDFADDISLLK
Description: Cellular Aβ-lowering assay a) (Aβ40 ELISA, HEK293 APP cells). The class given is cell-based. Particulars: cellular assay a): HEK293 APP695 cells, 18-20 hrs incubation, read-out: BACE1 cell act. Aβ40 IC50. As for the experimental part: Cellular Aβ-Lowering Assay:
a) Human HEK293 cells which are stably transfected with a vector expressing a cDNA of the human APP wt gene (APP695) were used to assess the potency of the compounds in a cellular assay. The cells were seeded in 96-well microtiter plates in cell culture medium (Iscove, plus 10% (v/v) fetal bovine serum, glutamine, penicillin/streptomycin) to about 80% confluence and the compounds were added at a 10× concentration in 1/10 volume of medium without FCS containing 8% DMSO (final concentration of DMSO was kept at 0.8% v/v). After 18-20 hrs incubation at 37° C. and 5% CO2 in a humidified incubator the culture supernatant was harvested for the determination of Aβ40 concentrations. 96 well ELISA plates (e.g., Nunc MaxiSorb) were coated with monoclonal antibody which specifically recognize the C-terminal end of Aβ40 (Brockhaus et al., NeuroReport 9, 1481-1486; 1998). After blocking of non-specific binding sites with e.g. 1% BSA and washing, the culture supernatants were added in suitable dilutions together with a horseradish peroxidase-coupled Aβ detection antibody (e.g., antibody 4G8, Senetek, Maryland Heights, Mo.) and incubated for 5 to 7 hrs. Subsequently the wells of the microtiter plate were washed extensively with Tris-buffered saline containing 0.05% Tween 20 and the assay was developed with tetramethylbenzidine/H2O2 in citric acid buffer. After stopping the reaction with one volume 1 NH2SO4 the reaction was measured in an ELISA reader at 450 nm wavelength. The concentrations of Aβ in the culture supernatants were calculated from a standard curve obtained with known amounts of pure Aβ peptide.
Background: An ELISA detects its analyte on a solid surface through an enzyme-linked reagent.
For orientation: IC50 means the concentration at which inhibition is half-maximal. As to `C[C@@]1(c2cc(NC3CCCC3)ccc2F)CCOC(N)=N1` [Example 2, (S)-4-(5-Cyclopentylamino-2-fluoro-phenyl)-4-methyl-5,6-dihydro-4H-[1,3]oxazin-2-ylamine], the IC50 came out at 340 nM.
The value for `C#CCNC(=O)c1ccc(F)c([C@@]2(C)N=C(N)OCC2(F)F)c1` [Example 41, 3-((R)-2-Amino-5,5-difluoro-4-methyl-5,6-dihydro-4H-[1,3]oxazin-4-yl)-4-fluoro-N-prop-2-ynyl-benzamide] was 6620 nM; that for `CC(Nc1ccc(F)c([C@@]2(C)N=C(N)OCC2(F)F)c1)c1nn(C)cc1Cl` (mixture of isomers) [Example 18, (R)-4-{5-[(RS)-1-(4-Chloro-1-methyl-1H-pyrazol-3-yl)-ethylamino]-2-fluoro-phenyl}-5,5-difluoro-4-methyl-5,6-dihydro-4H-[1,3]oxazin-2-ylamine] was 1230 nM.
In the case of `CC1(C)OC(N)=N[C@](C)(c2cc(Nc3ccccc3Cl)ccc2F)C1(F)F` [Example 42, (R)-4-[5-(2-Chloro-phenylamino)-2-fluoro-phenyl]-5,5-difluoro-4,6,6-trimethyl-5,6-dihydro-4H-[1,3]oxazin-2-ylamine] it was 1470 nM; in that of `C[C@]1(c2cc(NC3COC3)ccc2F)N=C(N)OCC1(F)F` [Example 29, (R)-5,5-Difluoro-4-[2-fluoro-5-(oxetan-3-ylamino)-phenyl]-4-methyl-5,6-dihydro-4H-[1,3]oxazin-2-ylamine], 1960 nM.
The value for `CC(Nc1ccc(F)c([C@@]2(C)N=C(N)OCC2(F)F)c1)c1cc(C2CC2)on1` (mixture of isomers) [Example 20, (R)-4-{5-[(RS)-1-(5-Cyclopropyl-isoxazol-3-yl)-ethylamino]-2-fluoro-phenyl}-5,5-difluoro-4-methyl-5,6-dihydro-4H-[1,3]oxazin-2-ylamine] was 2000 nM.
Consider `Cc1ccc(Cc2nc3ccc([C@@]4(C)N=C(N)OCC4(F)F)cc3[nH]2)cc1` [Example 37, (R)-5,5-Difluoro-4-methyl-4-[2-(4-methyl-benzyl)-3H-benzoimidazol-5-yl]-5,6-dihydro-4H-[1,3]oxazin-2-ylamine], for which the half-inhibitory concentration (IC50) is 300 nM.
The value for `C[C@]1(c2cc(-c3cnn(-c4ccc(F)cc4)c3)ccc2F)N=C(N)OCC1(F)F` [Example 31, (R)-5,5-Difluoro-4-{2-fluoro-5-[1-(4-fluoro-phenyl)-1H-pyrazol-4-yl]-phenyl}-4-methyl-5,6-dihydro-4H-[1,3]oxazin-2-ylamine] was 8440 nM; that for `CC1(CNc2ccc(F)c([C@@]3(C)N=C(N)OCC3(F)F)c2)COC1` [Example 24, (R)-5,5-Difluoro-4-{2-fluoro-5-[(3-methyl-oxetan-3-ylmethyl)-amino]-phenyl}-4-methyl-5,6-dihydro-4H-[1,3]oxazin-2-ylamine] was 300 nM.
On to `Cc1cc(C(C)Nc2ccc(F)c([C@@]3(C)N=C(N)OCC3(F)F)c2)[nH]n1` (mixture of isomers) [Example 17, (R)-5,5-Difluoro-4-{2-fluoro-5-[(RS)-1-(5-methyl-2H-pyrazol-3-yl)-ethylamino]-phenyl}-4-methyl-5,6-dihydro-4H-[1,3]oxazin-2-ylamine], for which the IC50 came out at 430 nM.
`C[C@]1(c2cccc(OCc3ccc(Cl)cc3)c2)N=C(N)OCC1(F)F` [Example 35, (R)-4-[3-(4-Chloro-benzyloxy)-phenyl]-5,5-difluoro-4-methyl-5,6-dihydro-4H-[1,3]oxazin-2-ylamine]: the concentration for half-maximal inhibition (IC50) stood at 4000 nM.
In the case of `Cc1ccccc1Nc1ccc(F)c([C@@]2(C)N=C(N)OC(C)(C)C2(F)F)c1` [Example 45, (R)-5,5-Difluoro-4-(2-fluoro-5-o-tolylamino-phenyl)-4,6,6-trimethyl-5,6-dihydro-4H-[1,3]oxazin-2-ylamine] it was 2920 nM; in that of `CC1(C)OC(N)=N[C@](C)(c2cc(-c3cncc(Cl)c3)ccc2F)C1(F)F` [Example 50, (R)-4-[5-(5-Chloro-pyridin-3-yl)-2-fluoro-phenyl]-5,5-difluoro-4,6,6-trimethyl-5,6-dihydro-4H-[1,3]oxazin-2-ylamine Hydrochloride], 9080 nM; in that of `C[C@]1(c2cc(NCC3CCOC3)ccc2F)N=C(N)OCC1(F)F` (mixture of isomers) [Example 30, (R)-5,5-Difluoro-4-{2-fluoro-5-{[(RS)-1-(tetrahydro-furan-3-yl)methyl]-amino}-phenyl}-4-methyl-5,6-dihydro-4H-[1,3]oxazin-2-ylamine], 2160 nM.
In the case of `C[C@]1(c2cc(NC3CS(=O)(=O)c4ccccc43)ccc2F)N=C(N)OCC1(F)F` (mixture of isomers) [Example 28, (R)-4-[5-((RS)-1,1-Dioxo-2,3-dihydro-1H-1λ6-benzo[b]thiophen-3-ylamino)-2-fluoro-phenyl]-5,5-difluoro-4-methyl-5,6-dihydro-4H-[1,3]oxazin-2-ylamine], the IC50 worked out at 1630 nM.
The value for `CC(Nc1ccc(F)c([C@@]2(C)N=C(N)OCC2(F)F)c1)c1nn(CC(F)F)cc1Cl` (mixture of isomers) [Example 19, (R)-4-(5-{(RS)-1-[4-Chloro-1-(2,2-difluoro-ethyl)-1H-pyrazol-3-yl]-ethylamino}-2-fluoro-phenyl)-5,5-difluoro-4-methyl-5,6-dihydro-4H-[1,3]oxazin-2-ylamine] was 1800 nM.
The value for `C[C@]1(c2cc3c(cc2F)OCC(c2ccc(Cl)cn2)N3)N=C(N)OCC1(F)F` (mixture of isomers) [Example 38, (R)-4-[(RS)-3-(5-Chloro-pyridin-2-yl)-7-fluoro-3,4-dihydro-2H-benzo[1,4]oxazin-6-yl]-5,5-difluoro-4-methyl-5,6-dihydro-4H-[1,3]oxazin-2-ylamine] was 5460 nM; that for `C[C@]1(c2cc(-c3cnn(-c4ccc(F)cc4)c3)ccc2F)N=C(N)OC[C@@H]1F` [Example 10, (4R,5R)-5-Fluoro-4-{2-fluoro-5-[1-(4-fluoro-phenyl)-1H-pyrazol-4-yl]-phenyl}-4-methyl-5,6-dihydro-4H-[1,3]oxazin-2-ylamine Hydrochloride] was 360 nM.
The value for `C[C@]1(c2cc(NC3CCOC3)ccc2F)N=C(N)OCC1(F)F` (mixture of isomers) [Example 26, (R)-5,5-Difluoro-4-{2-fluoro-5-[(RS)-(tetrahydro-furan-3-yl)amino]-phenyl}-4-methyl-5,6-dihydro-4H-[1,3]oxazin-2-ylamine] was 400 nM.
As for `Cc1cnn(-c2ccc(F)c([C@@]3(C)N=C(N)OC[C@@H]3F)c2)c1` [Example 11, (4R,5R)-5-Fluoro-4-[2-fluoro-5-(4-methyl-pyrazol-1-yl)-phenyl]-4-methyl-5,6-dihydro-4H-[1,3]oxazin-2-ylamine], the IC50 is 1300 nM.
The value for `C[C@]1(c2cccc(OCc3ccc(C(F)(F)F)cc3)c2)N=C(N)OCC1(F)F` [Example 36, (R)-5,5-Difluoro-4-methyl-4-[3-(4-trifluoromethyl-benzyloxy)-phenyl]-5,6-dihydro-4H-[1,3]oxazin-2-ylamine] was 7740 nM; that for `C[C@]1(c2cc(NCc3ccsc3)ccc2F)N=C(N)OC[C@@H]1F` [Example 6, (4R,5R)-5-Fluoro-4-{2-fluoro-5-[(thiophen-3-ylmethyl)-amino]-phenyl}-4-methyl-5,6-dihydro-4H-[1,3]oxazin-2-ylamine] was 660 nM.
Take `C[C@]1(c2cc(-c3cncc(C#N)c3)ccc2F)N=C(N)OC[C@@H]1F` [Example 9, 5-[3-((4R,5R)-2-Amino-5-fluoro-4-methyl-5,6-dihydro-4H-[1,3]oxazin-4-yl)-4-fluoro-phenyl]-nicotinonitrile]: the concentration for half-maximal inhibition (IC50) came to 190 nM.
In the case of `C[C@]1(c2cc(NC3CCCc4cc(C#N)cnc43)ccc2F)N=C(N)OCC1(F)F` (mixture of isomers) [Example 27, (RS)-8-[3-((R)-2-Amino-5,5-difluoro-4-methyl-5,6-dihydro-4H-[1,3]oxazin-4-yl)-4-fluoro-phenylamino]-5,6,7,8-tetrahydro-quinoline-3-carbonitrile] it was 460 nM.
The value for `C[C@]1(c2cccc(OCc3ccc(C#N)cc3)c2)N=C(N)OCC1(F)F` [Example 34, 4-[3-((R)-2-Amino-5,5-difluoro-4-methyl-5,6-dihydro-4H-[1,3]oxazin-4-yl)-phenoxymethyl]-benzonitrile] was 1400 nM.
With `CC1(C)OC(N)=N[C@](C)(c2cc(Nc3ccccc3C(F)(F)F)ccc2F)C1(F)F` [Example 46, (R)-5,5-Difluoro-4-[2-fluoro-5-(2-trifluoromethyl-phenylamino)-phenyl]-4,6,6-trimethyl-5,6-dihydro-4H-[1,3]oxazin-2-ylamine], the IC50 stood at 6920 nM.
The value for `COc1ccc(Cc2cc3cc(F)c([C@@]4(C)N=C(N)OCC4(F)F)cc3[nH]2)cc1` [Example 39, (R)-5,5-Difluoro-4-[5-fluoro-2-(4-methoxy-benzyl)-1H-indol-6-yl]-4-methyl-5,6-dihydro-4H-[1,3]oxazin-2-ylamine] was 5670 nM.
